Data as given in US20160102073A1, “2-HYDROXYMETHYL-SUBSTITUTED OREXIN RECEPTOR ANTAGONISTS” (MERCK SHARP & DOHME CORP., priority 2013, published 2016).

How the values were obtained:
[1] = target: T1, human orexin-2 receptor (hOX2R) (Homo sapiens, UniProt O43614); test: FLIPR Ca2+ Flux Assay, CHO cells expressing hOX2R; type: cell-based; conditions: agonist 70 pM Ala-6,12 orexin-A
T1 construct: expressed in transfected cells; host or cells: Chinese hamster ovary (CHO) cells, grown under G418 selection
T1 sequence (O43614 1-444): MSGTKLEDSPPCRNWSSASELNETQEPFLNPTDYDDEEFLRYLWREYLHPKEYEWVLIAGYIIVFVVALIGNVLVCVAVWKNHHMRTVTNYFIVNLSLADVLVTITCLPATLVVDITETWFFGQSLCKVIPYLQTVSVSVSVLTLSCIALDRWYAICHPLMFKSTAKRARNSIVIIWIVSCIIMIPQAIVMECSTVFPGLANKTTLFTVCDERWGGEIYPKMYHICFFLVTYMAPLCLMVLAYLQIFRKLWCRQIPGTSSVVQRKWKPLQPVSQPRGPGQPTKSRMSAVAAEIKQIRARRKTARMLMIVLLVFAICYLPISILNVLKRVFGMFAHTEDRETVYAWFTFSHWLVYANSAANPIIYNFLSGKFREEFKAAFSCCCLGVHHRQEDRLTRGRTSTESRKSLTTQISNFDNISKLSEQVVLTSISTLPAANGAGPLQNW
Experimental: The utility of the compounds in accordance with the present invention as orexin receptor OX1R and/or OX2R antagonists may be readily determined without undue experimentation by methodology well known in the art, including the “FLIPR Ca^2+ Flux Assay” (Okumura et al., Biochem. Biophys. Res. Comm. 280:976-981, 2001). In a typical experiment the OX1 and OX2 receptor antagonistic activity of the compounds of the present invention was determined in accordance with the following experimental method. For intracellular calcium measurements, Chinese hamster ovary (CHO) cells expressing the rat orexin-1 receptor or the human orexin-2 receptor, are grown in Iscove's modified DMEM containing 2 mM L-glutamine, […], 1% hypoxanthine-thymidine supplement, 100 U/ml penicillin, 100 μg/ml streptomycin and 10% heat-inactivated fetal calf serum (FCS). The cells are seeded at 20,000 cells/well into Becton-Dickinson black 384-well clear bottom sterile plates coated with poly-D-lysine. All reagents were from GIBCO-Invitrogen Corp. The seeded plates are incubated overnight at 37° C. and 5% CO2. Ala-6,12 human orexin-A as the agonist is prepared as a 1 mM stock solution in 1% bovine serum albumin (BSA) and diluted in assay buffer (HBSS containing 20 mM HEPES, 0.1% BSA and 2.5 mM probenecid, pH7.4) for use in the assay at a final concentration of 70 pM. Test compounds are prepared as 10 mM stock solution in DMSO, then diluted in 384-well plates, first in DMSO, then assay buffer. On the day of the assay, cells are washed 3 times with 100 μl assay buffer and then incubated for 60 min (37° C., 5% CO2) in 60 μl assay buffer containing 1 μM Fluo-4AM ester, 0.02% pluronic acid, and 1% BSA. The dye loading solution is then aspirated and cells are washed 3 times with 100 μl assay buffer. 30 μl of that same buffer is left in each well. Within the Fluorescent Imaging Plate Reader (FLIPR, Molecular Devices), test compounds are added to the plate in a volume of 25 μl, incubated for 5 min and finally 25 μl of agonist is added. Fluorescence is measured for each well at 1 second intervals for 5 minutes and the height of each fluorescence peak is compared to the height of the fluorescence peak induced by 70 pM Ala-6,12 orexin-A with buffer in place of antagonist. For each antagonist, IC50 value (the concentration of compound needed to inhibit 50% of the agonist response) is determined. Alternatively, compound potency can be assessed by a radioligand binding assay (described in Bergman et. al. Bioorg. Med. Chem. Lett. 2008, 18, 1425-1430) in which the inhibition constant (Ki) is determined in membranes prepared from CHO cells expressing either the OX1 or OX2 receptor. The intrinsic orexin receptor antagonist activity of a compound which may be used in the present invention may be determined by these assays.
Chinese hamster ovary (CHO) cells expressing the human orexin-1 receptor (hOX1R) or the human orexin-2 receptor (hOX2R) were grown in Iscove's modified DMEM containing 2 mM L-glutamine, […], 1% hypoxanthine-thymidine supplement, 100 U/ml penicillin, 100 μg/ml streptomycin and 10% heat-inactivated fetal calf serum (FCS). The cells were seeded at 20,000 cells/well into Becton-Dickinson black 384-well clear bottom sterile plates coated with poly-D-lysine. All reagents were from GIBCO-Invitrogen Corp. The seeded plates were incubated overnight at 37° C. and 5% CO2. Ala-6,12 human orexin-A, used as the agonist, was prepared as a 1 mM stock solution in 1% bovine serum albumin (BSA) and diluted in assay buffer (HBSS containing 20 mM HEPES, 0.1% BSA and 2.5 mM probenecid, pH7.4) for use in the assay at a final concentration of 70 pM. Test compounds were prepared as 10 mM stock solution in DMSO, then diluted in 384-well plates, first in DMSO, then assay buffer. […]

[2] = target: T2, human orexin-1 receptor (hOX1R) (Homo sapiens, UniProt O43613); test: FLIPR Ca2+ Flux Assay, CHO cells expressing hOX1R; type: cell-based; conditions: agonist 70 pM Ala-6,12 orexin-A
T2 construct: expressed in transfected cells; host or cells: Chinese hamster ovary (CHO) cells, grown under G418 selection
T2 sequence (O43613 1-425): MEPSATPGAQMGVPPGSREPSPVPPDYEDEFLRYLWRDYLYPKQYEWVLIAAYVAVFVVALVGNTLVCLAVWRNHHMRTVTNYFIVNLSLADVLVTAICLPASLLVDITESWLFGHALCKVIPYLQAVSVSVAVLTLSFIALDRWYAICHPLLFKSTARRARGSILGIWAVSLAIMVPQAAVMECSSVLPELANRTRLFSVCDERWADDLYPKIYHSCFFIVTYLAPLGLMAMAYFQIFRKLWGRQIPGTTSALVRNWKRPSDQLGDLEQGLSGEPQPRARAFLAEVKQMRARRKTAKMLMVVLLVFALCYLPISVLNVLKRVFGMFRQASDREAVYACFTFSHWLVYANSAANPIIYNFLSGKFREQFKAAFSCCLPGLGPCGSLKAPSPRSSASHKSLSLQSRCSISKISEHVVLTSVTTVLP
Experimental: Chinese hamster ovary (CHO) cells expressing the human orexin-1 receptor (hOX1R) or the human orexin-2 receptor (hOX2R) were grown in Iscove's modified DMEM containing 2 mM L-glutamine, […], 1% hypoxanthine-thymidine supplement, 100 U/ml penicillin, 100 μg/ml streptomycin and 10% heat-inactivated fetal calf serum (FCS). The cells were seeded at 20,000 cells/well into Becton-Dickinson black 384-well clear bottom sterile plates coated with poly-D-lysine. All reagents were from GIBCO-Invitrogen Corp. The seeded plates were incubated overnight at 37° C. and 5% CO2. Ala-6,12 human orexin-A, used as the agonist, was prepared as a 1 mM stock solution in 1% bovine serum albumin (BSA) and diluted in assay buffer (HBSS containing 20 mM HEPES, 0.1% BSA and 2.5 mM probenecid, pH7.4) for use in the assay at a final concentration of 70 pM. Test compounds were prepared as 10 mM stock solution in DMSO, then diluted in 384-well plates, first in DMSO, then assay buffer.
On the day of the assay, cells were washed 3× with 100 μl assay buffer and then incubated for 60 minutes (37° C., 5% CO2) in 60 μl assay buffer containing 1 μM Fluo-4AM ester, 0.02% pluronic acid, and 1% BSA. The dye loading solution was then aspirated and cells were washed 3× with 100 μl assay buffer. 30 μl of that same buffer was left in each well. Within the Fluorescent Imaging Plate Reader (FLIPR, Molecular Devices), test compounds were added to the plate in a volume of 25 μl, incubated for 5 minutes, and then 25 μl of agonist was added. Fluorescence was measured for each well at 1 second intervals for 5 minutes, and the height of each fluorescence peak was compared to the height of the fluorescence peak induced by 70 pM of Ala-6,12 orexin-A with buffer in place of test compound.

IC50 [1]	IC50 [2]	SMILES
21 nM	156 nM	C[C@@H]1CC[C@@H](Oc2ncccc2C(C)(C)O)CN1C(=O)c1ccccc1-n1ncnn1 [Example 48, 2-(2-{[(3R,6R)-6-Methyl-1-{[2-(2H-tetrazol-2-yl)phenyl]carbonyl}piperidin-3-yl]oxy}pyridin-3-yl)propan-2-ol]
37 nM	76 nM	C[C@H](O)c1cccnc1O[C@@H]1CC[C@@H](C)N(C(=O)c2ccccc2-n2nccn2)C1 [Example 30, (1S)-1-(2-{[(3R,6R)-6-Methyl-1-{[2-(2H-1,2,3-triazol-2-yl)phenyl]carbonyl}piperidin-3-yl]oxy}pyridin-3-yl)ethanol]
33 nM	46 nM	CC[C@@H](O)c1cccnc1O[C@@H]1CC[C@@H](C)N(C(=O)c2ccccc2-n2nccn2)C1 [Example 33, (1R)-1-(2-{[(3R,6R)-6-methyl-1-{[2-(2H-1,2,3-triazol-2-yl)phenyl]carbonyl}piperidin-3-yl]oxy}pyridin-3-yl) propan-1-ol]
27 nM	65 nM	CC(O)c1cccnc1O[C@@H]1CC[C@@H](C)N(C(=O)c2ccccc2-n2nccn2)C1 (stereo partly drawn) [Example 31, 1-(2-{[(3R,6R)-6-methyl-1-{[2-(2H-1,2,3-triazol-2-yl)phenyl]carbonyl}piperidin-3-yl]oxy}pyridin-3-yl)ethanol]
11 nM	30 nM	C[C@@H]1CC[C@@H](Oc2ncccc2C(C)(C)O)CN1C(=O)c1cc(CF)ccc1-n1nccn1 [Example 2, 2-(2-{[(3R,6R)-1-{[5-(Fluoromethyl)-2-(2H-1,2,3-triazol-2-yl)phenyl]carbonyl}-6-methylpiperidin-3-yl]oxy}pyridin-3-yl)propan-2-ol]
15 nM	69 nM	Cc1ccnc(O[C@@H]2CC[C@@H](C)N(C(=O)c3ccccc3-n3nccn3)C2)c1CO [Example 41, (4-methyl-2-{[(3R,6R)-6-methyl-1-{[2-(2H-1,2,3-triazol-2-yl)phenyl]carbonyl}piperidin-3-yl]oxy}pyridin-3-yl)methanol]
34 nM	94 nM	C[C@@H]1CC[C@@H](Oc2ncccc2C(C)(C)O)CN1C(=O)c1ccccc1C1CC1 [Example 13, 2-[2-({(3R,6R)-1-[(2-cyclopropylphenyl)carbonyl]-6-methylpiperidin-3-yl}oxy)pyridin-3-yl]propan-2-ol]
27 nM	64 nM	C#C[C@@H](O)c1cccnc1O[C@@H]1CC[C@@H](C)N(C(=O)c2ccccc2-n2nccn2)C1 [Example 35, (1R)-1-(2-{[(3R,6R)-6-methyl-1-{[2-(2H-1,2,3-triazol-2-yl)phenyl]carbonyl}piperidin-3-yl]oxy}pyridin-3-yl)prop-2-yn-1-ol]
17 nM	107 nM	C[C@@H]1CC[C@@H](Oc2nccc(C3CC3)c2CO)CN1C(=O)c1ccccc1-n1nccn1 [Example 42, (4-cyclopropyl-2-{[(3R,6R)-6-methyl-1-{[2-(2H-1,2,3-triazol-2-yl)phenyl]carbonyl}piperidin-3-yl]oxy}pyridin-3-yl) methanol]
68 nM	425 nM	C[C@@H]1CC[C@@H](Oc2ncccc2C(C)(C)O)CN1C(=O)c1ccc(F)cc1-n1nccn1 [Example 4, 2-(2-{[(3R,6R)-1-{[4-fluoro-2-(2H-1,2,3-triazol-2-yl)phenyl]carbonyl}-6-methylpiperidin-3-yl]oxy}pyridin-3-yl)propan-2-ol]
157 nM	435 nM	COc1ccc(C(=O)N2C[C@H](Oc3ncccc3C(C)(C)O)CC[C@H]2C)c(-c2ccccc2)n1 [Example 10, 2-[2-({(3R,6R)-1-[(6-methoxy-2-phenylpyridin-3-yl)carbonyl]-6-methylpiperidin-3-yl}oxy)pyridin-3-yl]propan-2-ol]
70 nM	124 nM	C[C@@H]1CC[C@@H](Oc2ncccc2C(C)(C)O)CN1C(=O)c1ccccc1-c1ccccc1 [Example 8, 2-(2-{[(3R,6R)-1-(biphenyl-2-ylcarbonyl)-6-methylpiperidin-3-yl]oxy}pyridin-3-yl)propan-2-ol]
289 nM	1840 nM	C[C@@H]1CC[C@@H](Oc2ncccc2CO)CN1C(=O)c1ccccc1-n1ncnn1 [Example 50, (2-{[(3R,6R)-6-methyl-1-{[2-(2H-tetrazol-2-yl)phenyl]carbonyl}piperidin-3-yl]oxy}pyridin-3-yl)methanol]
29 nM	95 nM	Cc1ccc(CO)c(O[C@@H]2CC[C@@H](C)N(C(=O)c3ccccc3-n3nccn3)C2)n1 [Example 45, (6-Methyl-2-{[(3R,6R)-6-methyl-1-{[2-(2H-1,2,3-triazol-2-yl)phenyl]carbonyl}piperidin-3-yl]oxy}pyridin-3-yl)methanol]
